From ChEMBL document CHEMBL1137681, “Design, synthesis and characterization of N9/N7-substituted 6-aminopurines as VEGF-R and EGF-R inhibitors” (Eur J Med Chem, 2009) come the findings set out here.

For test [1], the target named is Vascular endothelial growth factor receptor 3 (Homo sapiens, UniProt P35916). Description: Inhibition of VEGFR3 up to 100 uM.
The next test deals with Angiopoietin-1 receptor (Homo sapiens, UniProt Q02763). Description: Inhibition of TIE2 up to 100 uM.
Test [2] can be described thus: Inhibition of CK2 at 10 uM.
Test [3] has as its target Mitogen-activated protein kinase 11 (Homo sapiens) (UniProt Q15759). Description: Inhibition of SAPK2b at 10 uM.
For test [4], the target named is Mitogen-activated protein kinase 1 (Mus musculus) (UniProt P63085). Description: Inhibition of mouse MAPK2 at 10 uM.
For test [5], the target named is Ribosomal protein S6 kinase alpha-3 (Homo sapiens) (UniProt P51812). In words: Inhibition of RSK2 at 10 uM.
Chain of Ribosomal protein S6 kinase alpha-3 (Homo sapiens) (P51812 whole entry): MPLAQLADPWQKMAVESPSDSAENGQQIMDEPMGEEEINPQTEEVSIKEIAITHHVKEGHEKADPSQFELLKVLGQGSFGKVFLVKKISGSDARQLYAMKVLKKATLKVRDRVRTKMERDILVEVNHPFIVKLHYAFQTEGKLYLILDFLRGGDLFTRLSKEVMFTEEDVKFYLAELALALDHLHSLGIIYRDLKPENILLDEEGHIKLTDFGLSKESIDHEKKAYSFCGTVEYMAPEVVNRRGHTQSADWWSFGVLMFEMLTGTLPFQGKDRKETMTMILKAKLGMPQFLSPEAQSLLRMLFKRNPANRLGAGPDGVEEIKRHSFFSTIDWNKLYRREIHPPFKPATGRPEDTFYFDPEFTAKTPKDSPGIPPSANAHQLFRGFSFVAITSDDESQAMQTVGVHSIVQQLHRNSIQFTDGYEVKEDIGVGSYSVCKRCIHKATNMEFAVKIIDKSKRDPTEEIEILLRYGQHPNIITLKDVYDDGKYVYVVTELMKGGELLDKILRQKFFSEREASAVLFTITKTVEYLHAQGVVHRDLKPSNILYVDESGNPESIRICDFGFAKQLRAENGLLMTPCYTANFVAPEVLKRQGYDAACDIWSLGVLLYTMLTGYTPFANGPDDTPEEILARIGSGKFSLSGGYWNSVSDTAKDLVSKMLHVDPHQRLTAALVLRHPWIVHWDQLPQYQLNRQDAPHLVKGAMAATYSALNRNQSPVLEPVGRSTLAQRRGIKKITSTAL
Test [6] deals with Serine/threonine-protein kinase Sgk1 (Homo sapiens), O00141 [S422D]. In words: Inhibition of SGK1 S422D mutant at 10 uM.
Test [7] deals with Serine/threonine-protein kinase PAK 5 (Homo sapiens) (UniProt Q9P286). In words: Inhibition of human PAK5 at 10 uM.
Test [8] concerns the target Insulin receptor-related protein (Homo sapiens) (UniProt P14616). Description: Inhibition of human IRR at 10 uM.
Test [9] has as its target Ribosomal protein S6 kinase alpha-1 (Rattus norvegicus) (UniProt Q63531). Description: Inhibition of rat MAPKAP-K1a at 10 uM.
Test [10] addresses Casein kinase I isoform delta (Rattus norvegicus) (UniProt Q06486). Description: Inhibition of rat CK1delta (1-294) at 10 uM.
In test [11] the target is Mitogen-activated protein kinase 9 (Homo sapiens) (UniProt P45984). Description: Inhibition of human JNK2 at 10 uM.
Chain of Mitogen-activated protein kinase 9 (Homo sapiens) (P45984 whole entry, looked up): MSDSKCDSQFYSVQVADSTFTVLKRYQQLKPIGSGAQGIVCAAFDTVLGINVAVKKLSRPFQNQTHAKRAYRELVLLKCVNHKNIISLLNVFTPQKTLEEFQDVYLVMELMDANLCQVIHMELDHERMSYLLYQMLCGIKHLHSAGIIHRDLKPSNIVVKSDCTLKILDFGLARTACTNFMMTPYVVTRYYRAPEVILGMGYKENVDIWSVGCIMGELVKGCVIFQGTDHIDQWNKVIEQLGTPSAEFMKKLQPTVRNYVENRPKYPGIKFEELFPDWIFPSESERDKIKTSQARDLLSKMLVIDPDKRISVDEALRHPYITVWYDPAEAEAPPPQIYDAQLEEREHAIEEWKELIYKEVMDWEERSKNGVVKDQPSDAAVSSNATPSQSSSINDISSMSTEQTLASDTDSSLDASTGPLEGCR
Test [12] deals with Inhibitor of nuclear factor kappa-B kinase subunit beta (Homo sapiens) (UniProt O14920). In words: Inhibition of IKKb at 10 uM.
In test [13] the target is Dual specificity tyrosine-phosphorylation-regulated kinase 3 (Homo sapiens) (UniProt O43781). Description: Inhibition of human DYRK3 at 10 uM.
Test [14] concerns the target Inhibitor of nuclear factor kappa-B kinase subunit epsilon (Homo sapiens) (UniProt Q14164). Description: Inhibition of human IKKe at 10 uM.
Test [15] concerns the target Serine/threonine-protein kinase pim-3 (Homo sapiens) (UniProt Q86V86). In words: Inhibition of human PIM3 at 10 uM.
In test [16] the target is Serine/threonine-protein kinase 26 (Homo sapiens) (UniProt Q9P289). Description: Inhibition of human MST4 at 10 uM.
Test [17] has as its target Proto-oncogene tyrosine-protein kinase Src (Gallus gallus) (UniProt P00523). In words: Inhibition of chick SRC at 10 uM.
For test [18], the target named is Lymphokine-activated killer T-cell-originated protein kinase (Homo sapiens) (UniProt Q96KB5). Description: Inhibition of PBK at 10 uM.
Chain of Lymphokine-activated killer T-cell-originated protein kinase (Homo sapiens) (Q96KB5 whole entry): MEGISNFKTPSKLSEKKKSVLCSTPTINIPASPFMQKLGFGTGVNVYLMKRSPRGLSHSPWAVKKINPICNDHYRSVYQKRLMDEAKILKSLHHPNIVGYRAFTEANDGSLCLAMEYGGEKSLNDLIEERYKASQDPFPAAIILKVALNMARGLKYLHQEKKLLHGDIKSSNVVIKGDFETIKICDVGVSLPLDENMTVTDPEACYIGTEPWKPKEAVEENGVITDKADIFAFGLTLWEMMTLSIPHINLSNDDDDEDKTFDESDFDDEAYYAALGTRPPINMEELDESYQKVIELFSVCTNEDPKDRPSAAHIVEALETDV
Test [19] is described as follows: Inhibition of PKA at 10 uM.
Test [20] deals with Calcium/calmodulin-dependent protein kinase type 1 (Homo sapiens) (UniProt Q14012). In words: Inhibition of CAMK1 at 10 uM.
Chain of Calcium/calmodulin-dependent protein kinase type 1 (Homo sapiens) (Q14012 whole entry, looked up): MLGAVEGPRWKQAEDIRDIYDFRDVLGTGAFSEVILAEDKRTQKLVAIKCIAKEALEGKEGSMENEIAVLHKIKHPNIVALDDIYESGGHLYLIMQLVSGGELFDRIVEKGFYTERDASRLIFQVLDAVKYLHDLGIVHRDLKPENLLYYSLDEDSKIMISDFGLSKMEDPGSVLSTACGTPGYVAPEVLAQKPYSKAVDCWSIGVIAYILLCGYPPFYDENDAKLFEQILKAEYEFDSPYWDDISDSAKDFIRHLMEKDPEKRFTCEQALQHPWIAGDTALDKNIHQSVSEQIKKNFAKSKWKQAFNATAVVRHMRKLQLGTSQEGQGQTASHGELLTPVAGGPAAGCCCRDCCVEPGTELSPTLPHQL
The target in test [21] is MAP kinase-activated protein kinase 5 (Homo sapiens) (UniProt Q8IW41). In words: Inhibition of PRAK at 10 uM.
The target of test [22] is Serine/threonine-protein kinase PLK1 (Homo sapiens) (UniProt P53350). In words: Inhibition of human PLK1 at 10 uM.
For test [23], the target named is MAP kinase-interacting serine/threonine-protein kinase 2 (Homo sapiens) (UniProt Q9HBH9). Description: Inhibition of MNK2alpha at 10 uM.
For test [24], the target named is Serine/threonine-protein kinase pim-1 (Homo sapiens) (UniProt P11309). Description: Inhibition of human PIM1 at 10 uM.
Test [25] concerns the target Serine/threonine-protein kinase BRSK2 (Homo sapiens) (UniProt Q8IWQ3). Description: Inhibition of human BRSK2 at 10 uM.
Test [26] has as its target Tyrosine-protein kinase CSK (Homo sapiens) (UniProt P41240). In words: Inhibition of CSK at 10 uM.
Test [27] deals with Serine/threonine-protein kinase 3 (Homo sapiens) (UniProt Q13188). Description: Inhibition of human MST2 at 10 uM.
Another test is filed under the species Rattus norvegicus. In words: Inhibition of rat AMPK at 10 uM.
The target of test [28] is Eukaryotic elongation factor 2 kinase (Homo sapiens) (UniProt O00418). In words: Inhibition of human EF2K at 10 uM.
Test [29] addresses 3-phosphoinositide-dependent protein kinase 1 (PDPK1) (Homo sapiens) (UniProt O15530). Description: Inhibition of PDK1 (delta 1-51) at 10 uM.
Test [30] addresses Homeodomain-interacting protein kinase 3 (Homo sapiens) (UniProt Q9H422). Description: Inhibition of human HIPK3 at 10 uM.
Test [31] is described as follows: Inhibition of PKBbeta S474D mutant at 10 uM.
Test [32] concerns the target Ribosomal protein S6 kinase alpha-5 (Homo sapiens) (UniProt O75582). In words: Inhibition of MSK1 at 10 uM.
The target in test [33] is Serine/threonine-protein kinase Nek2 (Homo sapiens) (UniProt P51955). In words: Inhibition of NEK2a at 10 uM.
Test [34] deals with Tyrosine-protein kinase Yes (Homo sapiens) (UniProt P07947). Description: Inhibition of human YES1 at 10 uM.
In test [35] the target is Myosin light chain kinase, smooth muscle (Homo sapiens) (UniProt Q15746). In words: Inhibition of smMLCK at 10 uM.
Test [36] concerns RAC-alpha serine/threonine-protein kinase (Homo sapiens), P31749 [S473D]. In words: Inhibition of PKBalpha S473D mutant at 10 uM.
Test [37] addresses Serine/threonine-protein kinase Chk2 (Homo sapiens) (UniProt O96017). Description: Inhibition of CHK2 at 10 uM.
Test [38] addresses Mitogen-activated protein kinase 15 (Homo sapiens) (UniProt Q8TD08). In words: Inhibition of ERK8 at 10 uM.
The target in test [39] is Calcium/calmodulin-dependent protein kinase kinase 1 (Homo sapiens) (UniProt Q8N5S9). Description: Inhibition of human CAMKKalpha at 10 uM.
Test [40] has as its target Glycogen synthase kinase-3 beta (Homo sapiens) (UniProt P49841). In words: Inhibition of GSK3-beta at 10 uM.
The target of test [41] is Rho-associated protein kinase 2 (Rattus norvegicus) (UniProt Q62868). In words: Inhibition of rat ROCK2 at 10 uM.
In test [42] the target is Serine/threonine-protein kinase Chk1 (Homo sapiens) (UniProt O14757). Description: Inhibition of CHK1 at 10 uM.
For test [43], the target named is Tyrosine-protein kinase SYK (Homo sapiens) (UniProt P43405). Description: Inhibition of human SYK at 10 uM.
Test [44] has as its target Mitogen-activated protein kinase 10 (Homo sapiens) (UniProt P53779). In words: Inhibition of JNK3alpha1 at 10 uM.
Test [45] addresses Mitogen-activated protein kinase 12 (Homo sapiens) (UniProt P53778). Description: Inhibition of SAPK3 at 10 uM.
The target of test [46] is Insulin receptor-related protein (Homo sapiens) (UniProt P14616). In words: Inhibition of IRR at 10 uM.
Chain of Insulin receptor-related protein (Homo sapiens) (P14616 27-742 limits assumed): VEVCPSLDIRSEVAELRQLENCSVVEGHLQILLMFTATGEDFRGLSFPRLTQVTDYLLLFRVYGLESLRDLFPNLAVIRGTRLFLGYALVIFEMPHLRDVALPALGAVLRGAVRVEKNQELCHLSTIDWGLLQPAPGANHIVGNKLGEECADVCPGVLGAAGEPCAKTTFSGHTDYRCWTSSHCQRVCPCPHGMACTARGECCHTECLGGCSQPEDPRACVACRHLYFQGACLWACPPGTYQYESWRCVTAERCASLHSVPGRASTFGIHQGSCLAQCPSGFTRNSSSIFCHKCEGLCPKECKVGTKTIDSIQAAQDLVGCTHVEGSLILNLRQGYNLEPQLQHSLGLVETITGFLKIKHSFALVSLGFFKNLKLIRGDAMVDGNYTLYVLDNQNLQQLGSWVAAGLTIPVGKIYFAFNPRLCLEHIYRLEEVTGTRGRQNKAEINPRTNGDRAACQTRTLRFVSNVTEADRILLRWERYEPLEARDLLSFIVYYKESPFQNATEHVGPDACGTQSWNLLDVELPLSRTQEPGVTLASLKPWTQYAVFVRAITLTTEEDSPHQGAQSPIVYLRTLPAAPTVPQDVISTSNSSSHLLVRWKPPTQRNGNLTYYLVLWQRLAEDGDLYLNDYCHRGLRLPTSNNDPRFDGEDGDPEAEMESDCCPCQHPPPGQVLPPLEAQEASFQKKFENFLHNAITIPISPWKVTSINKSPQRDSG
Chain of Insulin receptor-related protein (Homo sapiens) (P14616 747-1297 limits assumed): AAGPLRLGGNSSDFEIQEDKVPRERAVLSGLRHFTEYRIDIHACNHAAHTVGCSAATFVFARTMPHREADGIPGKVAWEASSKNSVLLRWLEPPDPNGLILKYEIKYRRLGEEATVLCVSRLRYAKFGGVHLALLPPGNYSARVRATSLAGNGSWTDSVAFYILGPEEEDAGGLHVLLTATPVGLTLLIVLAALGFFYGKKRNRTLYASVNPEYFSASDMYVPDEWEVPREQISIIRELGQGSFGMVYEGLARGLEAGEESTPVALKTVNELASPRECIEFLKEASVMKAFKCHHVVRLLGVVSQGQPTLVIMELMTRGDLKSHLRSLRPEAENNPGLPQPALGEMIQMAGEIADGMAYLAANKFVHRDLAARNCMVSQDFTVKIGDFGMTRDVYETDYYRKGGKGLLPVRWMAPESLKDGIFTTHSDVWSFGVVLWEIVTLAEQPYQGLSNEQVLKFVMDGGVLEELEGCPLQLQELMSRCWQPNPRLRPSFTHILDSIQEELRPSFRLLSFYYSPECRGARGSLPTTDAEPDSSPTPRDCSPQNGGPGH

Activity calls are given as the source filed them. The rule behind the calls is not given here.

Chain of Casein kinase I isoform delta (Rattus norvegicus) (Q06486 whole entry, looked up, canonical isoform): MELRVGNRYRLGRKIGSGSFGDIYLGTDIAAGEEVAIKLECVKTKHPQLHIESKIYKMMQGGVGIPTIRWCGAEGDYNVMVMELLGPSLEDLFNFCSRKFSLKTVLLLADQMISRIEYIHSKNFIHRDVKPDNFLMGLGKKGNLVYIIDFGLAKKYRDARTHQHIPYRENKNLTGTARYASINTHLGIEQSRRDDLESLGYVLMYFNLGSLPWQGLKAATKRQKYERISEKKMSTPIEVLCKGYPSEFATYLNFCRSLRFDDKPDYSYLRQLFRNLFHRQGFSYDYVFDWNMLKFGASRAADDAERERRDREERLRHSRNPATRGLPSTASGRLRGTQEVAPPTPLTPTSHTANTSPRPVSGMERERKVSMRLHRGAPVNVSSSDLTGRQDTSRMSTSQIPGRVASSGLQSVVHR
Chain of Ribosomal protein S6 kinase alpha-1 (Rattus norvegicus) (Q63531 whole entry, canonical isoform): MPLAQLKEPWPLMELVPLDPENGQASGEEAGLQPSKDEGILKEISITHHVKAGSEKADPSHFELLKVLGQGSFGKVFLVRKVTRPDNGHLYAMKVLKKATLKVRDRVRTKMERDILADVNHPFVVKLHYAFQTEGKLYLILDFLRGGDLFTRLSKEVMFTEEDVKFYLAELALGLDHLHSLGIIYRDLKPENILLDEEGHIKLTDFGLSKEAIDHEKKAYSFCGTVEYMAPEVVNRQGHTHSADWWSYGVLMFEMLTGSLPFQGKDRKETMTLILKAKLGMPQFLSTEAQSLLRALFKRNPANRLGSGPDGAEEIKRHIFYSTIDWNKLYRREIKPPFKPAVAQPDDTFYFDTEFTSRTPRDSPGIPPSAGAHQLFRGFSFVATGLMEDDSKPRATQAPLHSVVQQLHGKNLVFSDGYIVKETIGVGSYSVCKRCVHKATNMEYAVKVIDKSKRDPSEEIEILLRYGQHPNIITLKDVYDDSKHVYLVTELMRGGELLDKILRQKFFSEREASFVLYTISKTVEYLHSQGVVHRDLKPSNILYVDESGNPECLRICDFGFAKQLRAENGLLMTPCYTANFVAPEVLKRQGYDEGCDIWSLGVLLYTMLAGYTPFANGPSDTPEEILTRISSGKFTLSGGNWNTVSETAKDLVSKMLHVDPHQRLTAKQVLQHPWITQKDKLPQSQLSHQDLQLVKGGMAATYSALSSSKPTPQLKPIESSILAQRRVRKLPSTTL
Chain of Inhibitor of nuclear factor kappa-B kinase subunit epsilon (Homo sapiens) (Q14164 whole entry): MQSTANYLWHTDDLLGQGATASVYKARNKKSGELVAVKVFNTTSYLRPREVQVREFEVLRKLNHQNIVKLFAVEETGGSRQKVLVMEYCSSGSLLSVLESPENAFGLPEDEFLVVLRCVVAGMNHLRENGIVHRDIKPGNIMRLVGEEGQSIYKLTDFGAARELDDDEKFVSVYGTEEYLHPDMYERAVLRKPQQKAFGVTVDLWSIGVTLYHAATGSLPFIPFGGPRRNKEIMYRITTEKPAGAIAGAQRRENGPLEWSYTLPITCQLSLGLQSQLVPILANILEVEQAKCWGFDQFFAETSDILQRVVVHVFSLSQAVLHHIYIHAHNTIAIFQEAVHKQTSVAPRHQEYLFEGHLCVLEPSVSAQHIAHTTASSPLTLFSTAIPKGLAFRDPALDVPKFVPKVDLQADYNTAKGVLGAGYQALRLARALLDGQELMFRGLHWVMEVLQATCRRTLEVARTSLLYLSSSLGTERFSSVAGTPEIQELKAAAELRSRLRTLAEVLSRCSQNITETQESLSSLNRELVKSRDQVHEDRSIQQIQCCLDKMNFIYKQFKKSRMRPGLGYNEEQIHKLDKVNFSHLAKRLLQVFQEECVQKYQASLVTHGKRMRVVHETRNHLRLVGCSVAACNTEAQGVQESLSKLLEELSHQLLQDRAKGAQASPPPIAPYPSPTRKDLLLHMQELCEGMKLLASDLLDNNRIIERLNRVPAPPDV

For the compound `Nc1ncnc2ncn(CC(=O)c3ccccc3)c12`, the inhibition entry in test [1] is “inactive”.

With `Nc1ncnc2c1ncn2CC(=O)c1ccccc1`, the inhibition entry on Angiopoietin-1 receptor is “inactive”.

Turning to `Nc1ncnc2ncn(CC(=O)c3c[nH]c4ccccc34)c12`, the inhibition entry in test [2], in test [3], in test [4], in [5], in [6] and in [7] was “inactive” each time. Moreover, the inhibition entry in test [8], in test [9], in [10], in test [11], in [12] and in [13] was “inactive” throughout. Also, the inhibition entry in test [14], in [15], in test [16], in test [17], in test [18] and in test [19] was “inactive” throughout. The inhibition result in test [20], in test [21], in [22], in [23], in test [24] and in test [25] was “inactive” throughout. In addition, the inhibition entry (in test [26]; in test [27]; in the test filed under Rattus norvegicus; in test [28]; in test [29]; in test [30]) was “inactive” in each case. Moreover, the inhibition entry in [31], in test [32], in [33], in test [34], in test [35] and in test [36] was “inactive” throughout. Moreover, the inhibition result in test [37], in test [38], in test [39], in test [40], in test [41] and in test [42] was “inactive” throughout. Besides, the inhibition result in test [43], in test [44] and in [45] was “inactive” each time.

As for `Nc1ncnc2c1ncn2CC(=O)c1c[nH]c2ccccc12`, in test [46], the inhibition stood at 51%.

One may read the inhibition as the percentage by which the read-out fell short of the control.
